# Experiments:
# Test in all cases: relative viability (nuclei count vs DMSO), 5 days (fraction); higher = more cells survive
# MK-2206 = compound: NC1(c2ccc(-c3nc4ccn5c(=O)[nH]nc5c4cc3-c3ccccc3)cc2)CCC1 [MK-2206]
# In short: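 Following overnight incubation at 37 °C, lung cancer cell lines in 1536-well plates were pinned with five library-drug doses (not always all listed) in √10 steps on vehicle-anchored plates. The cells then spent 5 days without medium change before a combined fix, permeabilisation and Hoechst stain, 4× imaging and MetaXpress nuclear counts. Viability is the treated-to-vehicle ratio of nuclei, taken as the median across plates. Only plates with control CV below 25% and at least one doubling passed.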
# Pictilisib + Phenformin = compound: CS(=O)(=O)N1CCN(Cc2cc3nc(-c4cccc5[nH]ncc45)nc(N4CCOCC4)c3s2)CC1 [Pictilisib] + N=C(N)NC(=N)NCCc1ccccc1 [Phenformin] (partner 250 µM)
# In short: (§1)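 Lung cancer cell lines, seeded in 1536-well plates, were treated the following day by pin tool with a single drug or with five library-drug doses (not always all listed) in √10 steps on top of a fixed anchor-drug dose. Cells were fixed and nuclei stained in one step after 5 days, and nuclei were counted. Relative viability is the nuclei count for treated wells divided by that for vehicle wells, reported as medians of duplicate plates.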
# Pictilisib + AZD7762 = compound: CS(=O)(=O)N1CCN(Cc2cc3nc(-c4cccc5[nH]ncc45)nc(N4CCOCC4)c3s2)CC1 [Pictilisib] + NC(=O)Nc1cc(-c2cccc(F)c2)sc1C(=O)N[C@H]1CCCNC1 [AZD7762] (partner 0.2 µM)
# In short: as §1
# MK-2206 + Lapatinib = compound: NC1(c2ccc(-c3nc4ccn5c(=O)[nH]nc5c4cc3-c3ccccc3)cc2)CCC1 [MK-2206] + CS(=O)(=O)CCNCc1ccc(-c2ccc3ncnc(Nc4ccc(OCc5cccc(F)c5)c(Cl)c4)c3c2)o1 [Lapatinib] (partner 2 µM)
# In short: as §1
# MK-2206 + Tozasertib = compound: NC1(c2ccc(-c3nc4ccn5c(=O)[nH]nc5c4cc3-c3ccccc3)cc2)CCC1 [MK-2206] + Cc1cc(Nc2cc(N3CCN(C)CC3)nc(Sc3ccc(NC(=O)C4CC4)cc3)n2)n[nH]1 [Tozasertib] (partner 0.1 µM)
# In short: as §1
Cell Line,relative viability (MK-2206; 0.01 µM),relative viability (MK-2206; 0.03162 µM),relative viability (MK-2206; 0.3162 µM),relative viability (MK-2206; 1 µM),relative viability (Pictilisib + Phenformin; first compound 0.02 µM),relative viability (Pictilisib + Phenformin; first compound 0.06325 µM),relative viability (Pictilisib + Phenformin; first compound 0.6325 µM),relative viability (Pictilisib + Phenformin; first compound 2 µM),relative viability (Pictilisib + AZD7762; first compound 0.02 µM),relative viability (Pictilisib + AZD7762; first compound 0.06325 µM),relative viability (Pictilisib + AZD7762; first compound 0.6325 µM),relative viability (Pictilisib + AZD7762; first compound 2 µM),relative viability (MK-2206 + Lapatinib; first compound 0.01 µM),relative viability (MK-2206 + Lapatinib; first compound 0.03162 µM),relative viability (MK-2206 + Lapatinib; first compound 1 µM),relative viability (MK-2206 + Tozasertib; first compound 0.01 µM),relative viability (MK-2206 + Tozasertib; first compound 0.03162 µM),relative viability (MK-2206 + Tozasertib; first compound 0.3162 µM),relative viability (MK-2206 + Tozasertib; first compound 1 µM),relative viability (MK-2206 + Lapatinib; first compound 0.3162 µM)
EPLC-272H,1.09,0.914,0.77,0.716,0.284,0.323,0.23,0.197,0.25,0.279,0.173,0.14,1.06,0.916,1.33,0.292,0.378,0.344,0.246,–
H3255,0.941,1.01,0.836,0.826,0.399,0.344,0.334,0.318,0.814,0.8,0.832,0.578,0.268,0.224,0.192,0.773,0.663,0.511,0.703,0.18
HARA,0.972,1.08,1.08,0.832,0.454,0.469,0.37,0.244,0.246,0.357,0.302,0.245,0.774,0.81,0.51,0.0977,0.106,0.267,0.094,0.567
HCC-15,0.996,1.06,0.866,0.923,0.506,0.504,0.346,0.261,1.23,1.25,0.989,0.78,0.825,0.9,0.8,0.397,0.394,0.28,0.235,0.657
HCC-44,0.967,1.01,0.989,0.723,0.215,0.151,0.154,0.0888,0.978,0.994,1.05,1.22,1.01,1.01,1.07,0.993,1.1,1.03,0.98,1.05
HCC-78,0.945,0.919,1.02,0.638,0.587,0.705,0.427,0.312,0.569,0.559,0.395,0.233,0.703,0.376,0.703,1.52,–,0.38,0.365,0.88
HCC-366,1.02,1.02,0.978,0.98,0.631,0.702,0.269,0.129,0.316,0.259,0.204,0.0615,1.05,1.09,1.16,0.159,0.0953,0.165,0.0632,1.08
HCC-827,1.04,1.05,1.05,0.932,0.423,0.419,0.376,0.306,0.17,0.153,0.154,0.122,0.173,0.193,0.179,0.441,0.438,0.366,0.412,0.205
HOP-62,0.91,1.08,0.993,0.918,0.681,0.701,0.717,0.598,0.759,0.668,0.469,0.459,0.946,1.12,1.26,0.381,0.39,0.391,0.322,0.939
LC-2-ad,0.969,1.05,0.994,0.876,0.593,0.636,0.464,0.323,0.814,0.799,0.646,0.407,0.944,1.08,0.542,0.42,0.484,0.525,0.44,1.03
LCLC-97TM1,0.941,1.05,0.968,0.829,0.435,0.415,0.398,0.194,0.34,0.469,0.258,0.133,1.67,1.35,0.52,0.26,0.382,0.194,0.223,0.697
LK-2,0.944,1.09,1.05,0.911,0.468,0.379,0.176,0.143,0.357,0.392,0.147,0.0792,1.03,1.05,0.854,0.174,0.165,0.186,0.168,0.863
LOU-NH91,0.983,0.999,1.02,0.875,0.773,0.812,0.609,0.461,0.803,0.718,0.567,0.495,0.786,0.739,0.584,0.693,0.727,0.658,0.645,0.603
LU99A,1.01,1.07,0.961,1.02,0.911,0.869,0.791,0.532,0.423,0.395,0.266,0.185,1.05,0.871,0.877,0.302,0.281,0.271,0.21,0.904
LXF-289,0.995,1.07,1.03,1.09,0.508,0.557,0.452,0.436,1.19,1.14,1.08,0.849,0.907,0.985,0.901,0.209,0.201,0.238,0.172,0.911

# Reference: the supplement of paper PMC10307832
